# Measurements as given in patent US8563742B2, “Substituted aminothiazole derivatives, pharmaceutical compositions, and methods of use” (High Point Pharmaceuticals, LLC, priority 2008, dated 2013).
# Like-named read-outs stand apart in the source and are kept apart here.
# How the values were obtained:
# [1] = target: T1, human MC-4R (Homo sapiens, UniProt P32245); assay: Biological Assay: inhibition of AgRP functional interaction with MC-4R in presence of αMSH (cAMP production); type: cell-based; details: HEK293 cells expressing human MC-4R, AgRP83-132 and αMSH present
# T1 construct: expressed in transfected cells
# Procedure: The following method is illustrative of techniques that may be employed to measure the ability of the compounds of Formula (I) to functionally modulate the binding of AgRP to melanocortin receptors. In particular, the assay below measures the ability of compounds of Formula (I) or pharmaceutically acceptable salts thereof to functionally modulate the binding of AgRP to MC-4R in the presence of a MC-4R agonist, such as alpha-MSH.
# HEK293 cells stably expressing human MC-4R receptors were grown in high glucose Dulbecco's Modified Eagle Medium (DMEM) with 4500 mg glucose/L, L-glutamine, NaHCO3, pyrdoxin HCl, 10 mM HEPES (pH 7.4), 0.1 mM NEAA (non-essential amino acid medium) (GIBCO Cat#11140-050), 10% fetal bovine serum and 700 μg/mL G418. Cells were grown in T-225 flasks at 37° C. with CO2 and humidity control.
# On the day of assay, cells were washed twice with phosphate buffered saline without calcium and magnesium (PBS) and incubated with 10 mL PBS until the cells were detached from the flask. The detached cells were centrifuged at 240 g for 5 min. The cell pellet was re-suspended in assay buffer (Earle's balanced salt solution (Sigma E3024) supplemented with 10 mM HEPES, pH 7.4, 0.5 mM IBMX and protease inhibitor cocktail (Roche, 1 complete tablet/75 mL buffer)).
# The inhibitory or enhancement effect of compounds on AgRP activity was measured in a multi-component assay containing testing compounds, AgRP83-132 (human, Phoenix Pharma, cat no. 003-53), cells expressing MC-4R, and αMSH (Bachem, cat no. H-1075). Test compounds, AgRP and αMSH were diluted with assay buffer. Test compounds and AgRP were mixed to 4 times of the final concentration and incubated at room temperature for 30 min. Five μL of testing compound/AgRP solution followed with 10 μL of cells (20,000 cells/well) were added to each well of a 384-well reaction plate before 5 μL of αMSH was added. Cells were stimulated with αMSH for an additional 30 min at 37° C.
# Stimulation of cells was stopped by adding a lysis buffer and cells were lysed. The intracellular concentration of cAMP may be measured by various techniques known to one of skill in the art including, but not limited to, fluorescence polarization (FP) and time-resolved fluorescence (TRF).
# The inhibition was shown by an increase in MC-4R mediated cAMP production.
# [2] = Stability in Liver Microsomes (human); type: in vitro ADME; details: 1 μM, 0.5 mg protein/mL, NADPH, 60 minutes, 37° C., pH 7.4
# Procedure: (§1) Various compounds were tested for their stability in human, monkey, dog, rat, and mouse liver microsomes. At a final concentration of 1 μM, compounds were incubated with either human, monkey, dog, rat, or mouse liver microsomes (0.5 mg protein/mL) in the presence of an NADPH-solution for 60 minutes at 37° C., pH 7.4 in phosphate buffer. Incubations were performed in duplicate. Reactions were terminated by the addition of methanol. The incubation solution was vortexed and transferred into a 96-well plate. The plate was sealed and centrifuged at approximately 3500 rpm for approximately 10 minutes. After centrifugation, the plate was loaded into 96-well plate autosampler and analyzed by LC/MS. Values are reported as percent of compound remaining after 1 hour.
# [3] = Stability in Liver Microsomes (monkey); type: in vitro ADME; details: 1 μM, 0.5 mg protein/mL, NADPH, 60 minutes, 37° C., pH 7.4
# Procedure: as §1
# [4] = Stability in Liver Microsomes (dog); type: in vitro ADME; details: 1 μM, 0.5 mg protein/mL, NADPH, 60 minutes, 37° C., pH 7.4
# Procedure: as §1
# [5] = Stability in Liver Microsomes (rat); type: in vitro ADME; details: 1 μM, 0.5 mg protein/mL, NADPH, 60 minutes, 37° C., pH 7.4
# Procedure: as §1
# [6] = Stability in Liver Microsomes (mouse); type: in vitro ADME; details: 1 μM, 0.5 mg protein/mL, NADPH, 60 minutes, 37° C., pH 7.4
# Procedure: as §1
# [7] = Pharmacokinetic screening in rats (plasma and brain); details: rat, 5 mg/kg PO; for concentration at 2 h: male, Sprague Dawley, po, 5 mg/kg, 2 hour time point; for Brain - 24 hours AUC (h * ng/g): 24 hour study
# Procedure: Pharmacokinetic screening in rats was performed on various compounds to measure brain to plasma ratio at 2 hour time point. […] The parameters for the pharmacokinetic protocol were as follows.
# Amount of compound: 5 mg/kg
# Species: Rat; Strain: Sprague Dawley; Sex: Male
# Diet Status: Overnight fasting
# Number of Animals (n) for each time point: 2
# Formulation: 0.1% CMC, 0.25% Tween 80 in distilled water
# Each formulation was administered once by oral gavage using a gavage needle (18G-3, BrainTree Scientific, INC, USA) attached to a syringe. The dose volume was 5 mL/kg for all animals. The actual volume administered to each animal was calculated and adjusted based on the most recent body weight.
# Blood samples (approximately 300 μL whole blood) was collected from each animal via tail vein except for terminal blood samples. Terminal blood samples were collected via cardiac puncture. All samples were collected into tubes containing lithium heparin (Multivette 600 LH-Gel, Sarstedt, Newton, N.C., USA). Following collection, the tubes were placed in refrigerator (maximum 30 minutes) or until centrifugation under refrigeration (at 2 to 8° C.) at 5000 g for 7 minutes. Each harvested plasma sample was then transferred into 1.2 mL polypropylene tubes, on the 96-Well Plate according to the 96-Well Plate plasma sample map and kept in freezer. Plasma samples were then analyzed for test substances.
# Brain samples were collected immediately after the rats were euthanised at designated time points. Brain samples were rinsed with saline, blotted dry, and weighed. Brain samples were placed into individual containers and kept in freezer (−20° C.). Brain samples were then analyzed for test articles.
# After analysis, all the plasma results were reported as ng/mL and brain sample results are reported as ng/g.
# [8] = read-out: Average EC50 (nM) in Biological Assay
# [9] = Average EC50 (nM) in Biological Assay
# [10] = plasma, Plasma - 2 hours (ng/mL)
# T1 sequence (P32245 whole entry): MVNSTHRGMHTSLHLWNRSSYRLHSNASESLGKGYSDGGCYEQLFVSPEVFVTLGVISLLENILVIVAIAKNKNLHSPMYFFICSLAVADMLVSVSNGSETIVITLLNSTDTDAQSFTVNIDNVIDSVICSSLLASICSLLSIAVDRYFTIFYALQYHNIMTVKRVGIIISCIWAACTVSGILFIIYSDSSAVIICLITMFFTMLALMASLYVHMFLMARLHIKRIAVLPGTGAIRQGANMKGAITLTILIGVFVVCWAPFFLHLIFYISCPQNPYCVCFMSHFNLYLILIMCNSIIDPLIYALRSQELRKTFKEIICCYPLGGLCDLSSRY
structure (smiles),measurement,setting,value
"Cc1ccc(CN(CCC(=O)[O-])c2nc(C3CCC(c4ccc(F)cc4)CC3)cs2)s1.[Na+] (stereo not shown) [Example 61, Sodium; 3-[{4-[4-(4-fluoro-phenyl)-cyclohexyl]-thiazol-2-yl}-(5-methyl-thiophen-2-ylmethyl)-amino]-propionate]",EC50,[1]; [8],246 nM
same,Stability in Liver Microsomes (% remaining after 1 hour incubation) Human,[2],68%
same,Stability in Liver Microsomes (% remaining after 1 hour incubation) Monkey,[3],13%
same,Stability in Liver Microsomes (% remaining after 1 hour incubation) Dog,[4],84%
same,Stability in Liver Microsomes (% remaining after 1 hour incubation) Rat,[5],40%
same,Stability in Liver Microsomes (% remaining after 1 hour incubation) Mouse,[6],74%
"Cc1ccc(CN(CCC(=O)O)c2nc(C3CCC(F)(F)CC3)cs2)s1 [Example 23, Sodium; 3-[[4-(4,4-difluoro-cyclohexyl)-thiazol-2-yl]-(5-methyl-thiophen-2-ylmethyl)-amino]-propionate]",EC50,[1]; [8],366 nM
same,Stability in Liver Microsomes (% remaining after 1 hour incubation) Human,[2],71%
same,Stability in Liver Microsomes (% remaining after 1 hour incubation) Monkey,[3],56%
same,Stability in Liver Microsomes (% remaining after 1 hour incubation) Dog,[4],94%
same,Stability in Liver Microsomes (% remaining after 1 hour incubation) Rat,[5],15%
same,Stability in Liver Microsomes (% remaining after 1 hour incubation) Mouse,[6],60%
"Cc1cc(CN(CCC(=O)O)c2nc(C3CCC(C(C)C)CC3)cs2)c(C)s1 (stereo not shown) [Example 26, 3-{(2,5-Dimethyl-thiophen-3-ylmethyl)-[4-(4-isopropyl-cyclohexyl)-thiazol-2-yl]-amino}-propionic acid]",EC50,[1]; [9],276 nM
same,Stability in Liver Microsomes (% remaining after 1 hour incubation) Human,[2],79%
same,Stability in Liver Microsomes (% remaining after 1 hour incubation) Monkey,[3],67%
same,Stability in Liver Microsomes (% remaining after 1 hour incubation) Dog,[4],72%
same,Stability in Liver Microsomes (% remaining after 1 hour incubation) Rat,[5],66%
same,Stability in Liver Microsomes (% remaining after 1 hour incubation) Mouse,[6],71%
same,concentration at 2 h,"[7]; brain, Brain - 2 hours (ng/g)",942 ng/g
same,concentration at 2 h,[7]; [10],6260 ng/mL
same,Brain - 24 hours AUC (h * ng/g),[7],"+++ (values between 20,000 and 10,000 h*ng/g)"
"Cc1ccc(CN(CCC(=O)O)c2nc([C@H]3CC[C@H](c4ccccc4)CC3)cs2)s1 [Example 38, Sodium; 3-{(5-methyl-thiophen-2-ylmethyl)-[4-(trans-4-phenyl-cyclohexyl)-thiazol-2-yl]-amino}-propionate]",EC50,[1]; [8],145 nM
same,Stability in Liver Microsomes (% remaining after 1 hour incubation) Human,[2],71%
same,Stability in Liver Microsomes (% remaining after 1 hour incubation) Monkey,[3],70%
same,Stability in Liver Microsomes (% remaining after 1 hour incubation) Dog,[4],93%
same,Stability in Liver Microsomes (% remaining after 1 hour incubation) Rat,[5],90%
same,Stability in Liver Microsomes (% remaining after 1 hour incubation) Mouse,[6],99%
same,concentration at 2 h,[7]; [10],8400 ng/mL
same,Brain - 24 hours AUC (h * ng/g),[7],"++++ (values above 20,000 h*ng/g)"
"Cc1cc(CN(CCC(=O)[O-])c2nc(C3CCC(c4ccccc4)CC3)cs2)c(C)s1.[Na+] (stereo not shown) [Example 40, Sodium; 3-{(2,5-dimethyl-thiophen-3-ylmethyl)-[4-(4-phenyl-cyclohexyl)-thiazol-2-yl]-amino}-propionate]",EC50,[1]; [8],219 nM
same,Stability in Liver Microsomes (% remaining after 1 hour incubation) Human,[2],61%
same,Stability in Liver Microsomes (% remaining after 1 hour incubation) Monkey,[3],85%
same,Stability in Liver Microsomes (% remaining after 1 hour incubation) Dog,[4],36%
same,Stability in Liver Microsomes (% remaining after 1 hour incubation) Rat,[5],67%
same,Stability in Liver Microsomes (% remaining after 1 hour incubation) Mouse,[6],90%
"COC1CCC(c2csc(N(CCC(=O)O)Cc3ccc(C)s3)n2)CC1 (stereo not shown) [Example 31, 3-[[4-(4-Methoxy-cyclohexyl)-thiazol-2-yl]-(5-methyl-thiophen-2-ylmethyl)-amino]-propionic acid]",EC50,[1]; [8],1570 nM
same,Stability in Liver Microsomes (% remaining after 1 hour incubation) Human,[2],83%
same,Stability in Liver Microsomes (% remaining after 1 hour incubation) Monkey,[3],88%
same,Stability in Liver Microsomes (% remaining after 1 hour incubation) Dog,[4],94%
same,Stability in Liver Microsomes (% remaining after 1 hour incubation) Rat,[5],83%
same,Stability in Liver Microsomes (% remaining after 1 hour incubation) Mouse,[6],91%
"CC(C)c1ccc(-c2csc(N(CCC(=O)[O-])Cc3cccs3)n2)cc1.[Na+] [Reference Compound A, Sodium 3-{[4-(4-isopropyl-phenyl)-thiazol-2-yl]-thiophen-2-ylmethyl-amino}-propionate, reference compound]",Stability in Liver Microsomes (% remaining after 1 hour incubation) Human,[2],40%
same,Stability in Liver Microsomes (% remaining after 1 hour incubation) Monkey,[3],2%
same,Stability in Liver Microsomes (% remaining after 1 hour incubation) Dog,[4],2%
same,Stability in Liver Microsomes (% remaining after 1 hour incubation) Rat,[5],54%
same,Stability in Liver Microsomes (% remaining after 1 hour incubation) Mouse,[6],52%
same,concentration at 2 h,"[7]; brain, Brain - 2 hours (ng/g)",1140 ng/g
same,concentration at 2 h,[7]; [10],3850 ng/mL
same,Brain - 24 hours AUC (h * ng/g),[7],"+ (values less than 5,000 h*ng/g)"
"Cc1ccc(CN(CCC(=O)O)c2nc(C3CCC(C)(C)CC3)cs2)s1 [Example 55, 3-[[4-(4,4-Dimethyl-cyclohexyl)-thiazol-2-yl]-(5-methyl-thiophen-2-ylmethyl)-amino]-propionic acid]",EC50,[1]; [8],70 nM
same,Stability in Liver Microsomes (% remaining after 1 hour incubation) Human,[2],49%
same,Stability in Liver Microsomes (% remaining after 1 hour incubation) Monkey,[3],78%
same,Stability in Liver Microsomes (% remaining after 1 hour incubation) Dog,[4],80%
same,Stability in Liver Microsomes (% remaining after 1 hour incubation) Rat,[5],64%
same,Stability in Liver Microsomes (% remaining after 1 hour incubation) Mouse,[6],68%
"Cc1cc(CN(CCC(=O)O)c2nc(C3CCC(C(C)(C)C)CC3)cs2)c(C)s1 (stereo not shown) [Example 25, 3-[[4-(4-tert-Butyl-cyclohexyl)-thiazol-2-yl]-(2,5-dimethyl-thiophen-3-ylmethyl)-amino]-propionic acid]",EC50,[1]; [8],80 nM
same,Stability in Liver Microsomes (% remaining after 1 hour incubation) Human,[2],99%
same,Stability in Liver Microsomes (% remaining after 1 hour incubation) Monkey,[3],77%
same,Stability in Liver Microsomes (% remaining after 1 hour incubation) Dog,[4],69%
same,Stability in Liver Microsomes (% remaining after 1 hour incubation) Rat,[5],69%
same,Stability in Liver Microsomes (% remaining after 1 hour incubation) Mouse,[6],81%
same,concentration at 2 h,"[7]; brain, Brain - 2 hours (ng/g)",552 ng/g
same,concentration at 2 h,[7]; [10],10500 ng/mL
same,Brain - 24 hours AUC (h * ng/g),[7],"+++ (values between 20,000 and 10,000 h*ng/g)"
"CCC1CCC(c2csc(N(CCC(=O)O)Cc3ccc(C)s3)n2)CC1 (stereo not shown) [Example 19, 3-[[4-(4-Ethyl-cyclohexyl)-thiazol-2-yl]-(5-methyl-thiophen-2-ylmethyl)-amino]-propionic acid]",EC50,[1]; [9],386 nM
same,Stability in Liver Microsomes (% remaining after 1 hour incubation) Human,[2],43%
same,Stability in Liver Microsomes (% remaining after 1 hour incubation) Monkey,[3],60%
same,Stability in Liver Microsomes (% remaining after 1 hour incubation) Dog,[4],87%
same,Stability in Liver Microsomes (% remaining after 1 hour incubation) Rat,[5],52%
same,Stability in Liver Microsomes (% remaining after 1 hour incubation) Mouse,[6],73%
"Cc1ccc(CN(CCC(=O)[O-])c2nc(C3CCC(C4CCCCC4)CC3)cs2)s1.[Na+] (stereo not shown) [Example 60, Sodium; 3-[(4-bicyclohexyl-4-yl-thiazol-2-yl)-(5-methyl-thiophen-2-ylmethyl)-amino]-propionate]",EC50,[1]; [8],191 nM
same,Stability in Liver Microsomes (% remaining after 1 hour incubation) Human,[2],92%
same,Stability in Liver Microsomes (% remaining after 1 hour incubation) Monkey,[3],83%
same,Stability in Liver Microsomes (% remaining after 1 hour incubation) Dog,[4],99%
same,Stability in Liver Microsomes (% remaining after 1 hour incubation) Rat,[5],86%
same,Stability in Liver Microsomes (% remaining after 1 hour incubation) Mouse,[6],87%
